Converted amounts (≈) assume the structure as drawn. “And” between values parts separate entries of the source, which are not always exact repeats. Equal values may be shown once. Read-outs that look alike come from different tables or passages of the source.
Experiments:
S. Aureus = experiment: MIC, S. Aureus; format: cell-based; conditions: for MIC: Staphylococcus aureus
Procedure: (§1) The MIC assays are carried out in 150 μL volume in duplicate in 96-well clear flat-bottom plates. The bacterial suspension from an overnight culture growth in appropriate medium is added to a solution of test compound in 4% DMSO in water. Final bacterial inoculum is approximately 10^5-10^6 CFU/well. […] Both ampicillin and tetracycline are used as antibiotic-positive controls in each screening assay for S. pyogenes, E. coli imp-, E. coli, S. aureus, E. faecalis, K. pneumoniae and P. vulgaris. Ciprofloxacin is used as an antibiotic positive control in each screening assay for P. aeruginosa.

E. Coli = experiment: MIC, E. Coli; format: cell-based; conditions: for MIC: Escherichia coli
Procedure: as §1

[1] = target: 18S ribosomal subunit RNA target; experiment: Mass spectrometry based binding assay (FTICR), 18S; conditions: Example 108
Procedure: (§2) In a typical experiment, 10 μL of an aqueous solution containing 100 mM ammonium acetate buffer, 2.5 or 5 μM of each RNA, and 33% isopropyl alcohol (to aid ion desolvation) was prepared with different concentrations of each ligand or ligand mixture Samples were introduced into the electrospray ionization source (negative ionization mode) at 1 μL/min and ions were stored for 1 sec in an RF-only hexapole following desolvation. The abundances were integrated from the respective ions for free RNA and the ligand-RNA complex. The primary (1:1 RNA:ligand) and secondary (1:2 complex, if observed). […] The peak ratios were measured at each concentration, then a plot of complex/free RNA versus concentration of ligand added was fitted to a second (or higher) order binding polynomial to determine the KD.

[2] = target: 16S ribosomal subunit RNA target; experiment: Mass spectrometry based binding assay (FTICR), 16S
Procedure: as §2, with “[…],” for “2.5 or 5 μM of each RNA,”

[3] = system: E. coli S30 bacterial extract (pBestLuc firefly luciferase reporter); experiment: Coupled bacterial transcription/translation assay; format: biochemical; conditions: read-out: Trans/Trans IC50
Procedure: The DNA template, pBestLuc™ (Promega), is a plasmid containing a reporter gene for firefly luciferase fused to a strong tac promoter and ribosome binding site. Messenger RNA from 1 μg pBestLuc is transcribed and translated in E. coli S30 bacterial extract in the presence or absence of test compound. Compounds are tested in a black 96 well microtiter plate with an assay volume of 35 μL. […] The transcription/translation reaction is incubated for 35 minutes at 37° C. followed by detection of functional luciferase with the addition of 30 μL LucLite™ (Packard). Light output is quantitated on a Packard TopCount.

[4] = system: Staphylococcus aureus (Smith Strain ATCC 13709); experiment: Staphylococcus aureus mouse protection assay; format: in vivo, mice; conditions: Staph Conc. 10^6, 10% Mucin, the 13th table
Procedure: Two of the novel aminoglycoside compounds of the invention were examined for their anitbacterial activity against staphylococcus aureus. Mice were fed with autoclaved commercial food pellets and sterile water ad libitum. Animals were inoculated intraperitoneally with 0.5 mL/mouse of the indicated concentration of S. aureus (ATCC 13709) containing 10% mucin. There were 10 mice in each treatment group and compounds were administered subcutaneously one and 3 hour after infection. Compounds 15a (R4═R5═CH3) and 15j (R4═H, R5═(CH2)2C6H5)) were used at 75 mg/kg, 37.5 mg/kg, 18.8 mg/kg, 9.4 mg/kg, 4.7 mg/kg, 2.3 mg/kg, 1.17 mg/kg and 0.5 mg/kg. Amakacin, paromomycin and neomycin were used as the positive controls at concentrations of 2 mg/kg, 1 mg/kg and 0.5 mg/kg.
Test compound was administered as an aqueous buffer solution (phosphate buffered saline (PBS), pH=7.4).

[5] = FTICR mass spectrometry, run at 100 nM RNA, Example 105
[6] = marked with an asterisk: run at 500 nM RNA, Example 105

## CN(CCc1ccccc1)CC1OC(OC2C(N)CC(N)C(O)C2OC2OC(CO)C(OC3OC(CN)C(O)C(O)C3N)C2O)C(N)C(O)C1O (stereo not shown) [Compound 15k]
S. Aureus; Example 109
  MIC S. Aureus: 0.3 to 0.6 µM
E. Coli; Example 109
  MIC E. Coli.: 2.5-5^ uM

## NCC1OC(OC2C(CO)OC(OC3C(O)C(N)CC(N)C3OC3OC(CNCCc4ccc(C5CCCCC5)cc4)C(O)C(O)C3N)C2O)C(N)C(O)C1O (stereo not shown) [Compound 15m]
S. Aureus; Example 109
  MIC S. Aureus: 0.3 to 0.6 µM
E. Coli; Example 109
  MIC E. Coli.: 1.3 to 2.5 µM

## NCCCCNCC1OC(OC2C(N)CC(N)C(O)C2OC2OC(CO)C(OC3OC(CN)C(O)C(O)C3N)C2O)C(N)C(O)C1O (stereo not shown) [Compound 15f]
S. Aureus; Example 108
  MIC S. Aureus: 10 to 20 µM
[1]
  Kd: 6000 nM
E. Coli; Example 108
  MIC E. Coli.: 2.5-5^ uM
[2]; Example 108
  Kd: 6300 nM

## COc1ccc(CCNCC2OC(OC3C(N)CC(N)C(O)C3OC3OC(CO)C(OC4OC(CN)C(O)C(O)C4N)C3O)C(N)C(O)C2O)cc1 (stereo not shown) [Compound 15r]
S. Aureus; Example 109
  MIC S. Aureus: 0.3 to 0.6 µM
E. Coli; Example 109
  MIC E. Coli.: 1.3 to 2.5 µM

## NCC1OC(OC2C(CO)OC(OC3C(O)C(N)CC(N)C3OC3OC(CO)C(O)C(O)C3N)C2OCCNCCc2cc(C(F)(F)F)cc(C(F)(F)F)c2)C(N)C(O)C1O (stereo not shown) [Compound 9af]
S. Aureus; Example 107
  MIC S. Aureus: 2.5-5^ uM
E. Coli; Example 107
  MIC E. Coli.: >10 µM

## NCC1OC(OC2C(CO)OC(OC3C(O)C(N)CC(N)C3OC3OC(CO)C(O)C(O)C3N)C2OCCNCCC2CC3CCC2C3)C(N)C(O)C1O (stereo not shown) [Compound 9ab]
S. Aureus; Example 107
  MIC S. Aureus: 5 to 10 µM
E. Coli; Example 107
  MIC E. Coli.: >10 µM

## NCC1OC(OC2C(CO)OC(OC3C(O)C(N)CC(N)C3OC3OC(CNCCc4ccc(C(F)(F)F)cc4)C(O)C(O)C3N)C2O)C(N)C(O)C1O (stereo not shown) [Compound 15q]
S. Aureus; Example 109
  MIC S. Aureus: 0.3 to 0.6 µM
E. Coli; Example 109
  MIC E. Coli.: 1.3 to 2.5 µM

## COc1cc(CCNCCOC2C(OC3C(O)C(N)CC(N)C3OC3OC(CO)C(O)C(O)C3N)OC(CO)C2OC2OC(CN)C(O)C(O)C2N)cc(OC)c1 (stereo not shown) [Compound 9y]
[3]; Example 106
  IC50: 200 nM
S. Aureus; Example 106
  MIC S. Aureus: 5 to 10 µM
E. Coli; Example 106
  MIC E. Coli.: 10 to 20 µM

## NCC1OC(OC2C(CO)OC(OC3C(O)C(N)CC(N)C3OC3OC(CN4CCC5CCCCC54)C(O)C(O)C3N)C2O)C(N)C(O)C1O (stereo not shown) [Compound 15s]
S. Aureus; Example 109
  MIC S. Aureus: 0.3 to 0.6 µM
E. Coli; Example 109
  MIC E. Coli.: 1.3 to 2.5 µM

## Cc1ccc(CCNCC2OC(OC3C(N)CC(N)C(O)C3OC3OC(CO)C(OC4OC(CN)C(O)C(O)C4N)C3O)C(N)C(O)C2O)cc1 (stereo not shown) [Compound 15g]
S. Aureus; Example 109
  MIC S. Aureus: 0.6 to 1.2 µM
E. Coli; Example 109
  MIC E. Coli.: 2.5-5^ uM

## NCC1OC(OC2C(CO)OC(OC3C(O)C(N)CC(N)C3OC3OC(CO)C(O)C(O)C3N)C2OCCNc2ccccc2)C(N)C(O)C1O (stereo not shown) [Compound 9l]
[3]; Example 105
  IC50: 100 nM
S. Aureus; Example 105
  MIC S. Aureus: 6 to 12 µM
E. Coli; Example 105
  MIC E. Coli.: 50 to 100 µM

## NCCN(CCN)CCOC1C(OC2C(O)C(N)CC(N)C2OC2OC(CO)C(O)C(O)C2N)OC(CO)C1OC1OC(CN)C(O)C(O)C1N (stereo not shown) [Compound 9h]
[3]; Example 105
  IC50: 1000 nM
S. Aureus; Example 105
  MIC S. Aureus: 25 to 50 µM
E. Coli; Example 105
  MIC E. Coli.: >50 µM
[2]; [5]
  Kd: 9200 nM

## NC[C@@H]1O[C@H](O[C@H]2[C@@H](OCCOCCCC3CCCCC3)[C@H](O[C@@H]3[C@@H](O)[C@H](N)C[C@H](N)[C@H]3O[C@H]3O[C@H](CO)[C@@H](O)[C@H](O)[C@H]3N)O[C@@H]2CO)[C@H](N)[C@@H](O)[C@@H]1O [Compound 12b]
S. Aureus; Example 107
  MIC: 5 to 10 µM (≈ 3.92 to 7.84 µg/mL)
E. Coli; Example 107
  MIC: 20 to 40 µM (≈ 15.7 to 31.4 µg/mL)

## NCCNCCOC1C(OC2C(O)C(N)CC(N)C2OC2OC(CO)C(O)C(O)C2N)OC(CO)C1OC1OC(CN)C(O)C(O)C1N (stereo not shown) [Compound 9d]
[3]; Example 105
  IC50: 300 nM
S. Aureus; Example 105
  MIC S. Aureus: 2 to 3 µM
E. Coli; Example 105
  MIC E. Coli.: 6 to 12 µM
[2]; [5]
  Kd: 700 nM

## NC1CC(N)C(OC2OC(CO)C(O)C(O)C2N)C(OC2OC(CO)C(O)C2OCCNCCc2ccccc2)C1O (stereo not shown) [Compound 30c]
S. Aureus; Example 107
  MIC S. Aureus: 12 to 25 µM
E. Coli; Example 107
  MIC E. Coli.: >100 µM

## CN(C)CCOC1C(OC2C(O)C(N)CC(N)C2OC2OC(CO)C(O)C(O)C2N)OC(CO)C1OC1OC(CN)C(O)C(O)C1N (stereo not shown) [Compound 9g]
[3]; Example 105
  IC50: 200 nM
S. Aureus; Example 105
  MIC S. Aureus: 6 to 12 µM
E. Coli; Example 105
  MIC E. Coli.: 12 to 52 µM
[2]; [6]
  Kd: 900 nM

## COc1ccccc1CCNCC1OC(OC2C(N)CC(N)C(O)C2OC2OC(CO)C(OC3OC(CN)C(O)C(O)C3N)C2O)C(N)C(O)C1O (stereo not shown) [Compound 15n]
S. Aureus; Example 109
  MIC S. Aureus: 0.2 to 0.3 µM and 0.3 to 0.6 µM

## NCC1OC(OC2C(CF)OC(OC3C(O)C(N)CC(N)C3OC3OC(CO)C(O)C(O)C3N)C2O)C(N)C(O)C1O (stereo not shown) [Compound 61, 5″-deoxy-5″-fluoro paromomycin]
[3]; Example 105
  IC50: 300 nM
S. Aureus; Example 105
  MIC: 12 to 25 µM (≈ 7.41 to 15.4 µg/mL)
E. Coli; Example 105
  MIC: > 50 µM
[2]; [5]
  Kd: 1100 nM

## NCC1OC(OC2C(CO)OC(OC3C(O)C(N)CC(N)C3OC3OC(CO)C(O)C(O)C3N)C2OCCNC2CCCc3ccccc32)C(N)C(O)C1O (stereo not shown) [Compound 9ac]
S. Aureus; Example 107
  MIC S. Aureus: 1.3 to 2.5 µM
E. Coli; Example 107
  MIC E. Coli.: >10 µM

## neomycin [reference compound]
[4]; 0.5 mg/kg subcutaneously
  # Dead mice/Total mice in group: 7/10
[4]; 1 mg/kg subcutaneously
  # Dead mice/Total mice in group: 10/10
[4]; 2 mg/kg subcutaneously
  # Dead mice/Total mice in group: 4/10

## NC[C@@H]1O[C@H](O[C@H]2[C@@H](OCCCc3ccccc3)[C@H](O[C@@H]3[C@@H](O)[C@H](N)C[C@H](N)[C@H]3O[C@H]3O[C@H](CO)[C@@H](O)[C@H](O)[C@H]3N)O[C@@H]2CO)[C@H](N)[C@@H](O)[C@@H]1O [Compound 14b]
S. Aureus; Example 107
  MIC: 3 to 5 µM (≈ 2.2 to 3.67 µg/mL)
E. Coli; Example 107
  MIC: 20 to 40 µM (≈ 14.7 to 29.4 µg/mL)

## NCCOC1C(OC2C(O)C(N)CC(N)C2OC2OC(CO)C(O)C(O)C2N)OC(CO)C1OC1OC(CN)C(O)C(O)C1N (stereo not shown) [Compound 9f]
[3]; Example 105
  IC50: 400 nM
S. Aureus; Example 105
  MIC S. Aureus: 2 to 3 µM
E. Coli; Example 105
  MIC E. Coli.: 12 to 25 µM
[2]; [5]
  Kd: 300 nM

## NCC1OC(OC2C(CO)OC(OC3C(O)C(N)CC(N)C3OC3OC(CO)C(O)C(O)C3N)C2OCCNCCc2ccc(C(F)(F)F)cc2)C(N)C(O)C1O (stereo not shown) [Compound 9ah]
S. Aureus; Example 107
  MIC S. Aureus: 0.6 to 1.2 µM
E. Coli; Example 107
  MIC E. Coli.: 5 to 10 µM

## NCC[C@H](O)C(=O)N[C@@H]1C[C@H](N)[C@@H](O[C@H]2O[C@H](CN)[C@@H](O)[C@H](O)[C@H]2O)[C@H](O)[C@H]1O[C@H]1O[C@H](CO)[C@@H](O)[C@H](N)[C@H]1O [Amikacin, reference compound]
[4]; 0.5 mg/kg subcutaneously
  # Dead mice/Total mice in group: 8/10
[4]; 1 mg/kg subcutaneously
  # Dead mice/Total mice in group: 10/10
[4]; 2 mg/kg subcutaneously
  # Dead mice/Total mice in group: 8/10

## NCCCNCCOC1C(OC2C(O)C(N)CC(N)C2OC2OC(CO)C(O)C(O)C2N)OC(CO)C1OC1OC(CN)C(O)C(O)C1N (stereo not shown) [Compound 9c]
[3]; Example 105
  IC50: 300 nM
S. Aureus; Example 105
  MIC S. Aureus: 3 to 6 µM
E. Coli; Example 105
  MIC E. Coli.: 25 to 50 µM
[2]; [6]
  Kd: 400 nM

Reference: patent US8569264B2, “Antibacterial 4,5-substituted aminoglycoside analogs having multiple substituents” (ISIS Pharmaceuticals, Inc., priority 2005, dated 2013)
